Source: publication PMC8222254, “Self-assembly of an anion receptor with metal-dependent kinase inhibition and potent in vitro anti-cancer properties” (Nature Communications, 2021)
Values joined by “and” are separate entries in the source; they are usually repeats but may differ in a detail not shown here. Equal values may be shown once.

Legend:
Type in all cases: biochemical
[1] = target: T1, recombinant human AMPK (α1β2γ1) (Homo sapiens, UniProt Q13131); test: Substrate competition assay (ADP-Glo Kinase Assay)
T1 construct: purchased Promega
T1 sequence (Q13131 whole entry): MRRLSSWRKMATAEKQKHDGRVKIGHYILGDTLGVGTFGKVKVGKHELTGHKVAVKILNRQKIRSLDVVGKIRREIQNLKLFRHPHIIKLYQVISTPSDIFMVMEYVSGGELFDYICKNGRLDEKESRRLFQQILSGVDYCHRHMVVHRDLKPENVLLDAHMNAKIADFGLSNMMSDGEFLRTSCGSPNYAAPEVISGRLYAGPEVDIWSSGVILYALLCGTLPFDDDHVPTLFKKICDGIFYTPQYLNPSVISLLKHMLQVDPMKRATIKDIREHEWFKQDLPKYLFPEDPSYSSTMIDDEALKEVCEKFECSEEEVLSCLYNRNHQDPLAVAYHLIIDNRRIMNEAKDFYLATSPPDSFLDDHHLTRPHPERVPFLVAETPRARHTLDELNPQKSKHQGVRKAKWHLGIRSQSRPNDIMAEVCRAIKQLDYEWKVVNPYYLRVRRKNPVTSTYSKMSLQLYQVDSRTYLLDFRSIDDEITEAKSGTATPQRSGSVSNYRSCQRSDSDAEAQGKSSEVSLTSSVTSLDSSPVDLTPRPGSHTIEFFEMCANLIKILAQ
T1 sequence (O43741 whole entry partner): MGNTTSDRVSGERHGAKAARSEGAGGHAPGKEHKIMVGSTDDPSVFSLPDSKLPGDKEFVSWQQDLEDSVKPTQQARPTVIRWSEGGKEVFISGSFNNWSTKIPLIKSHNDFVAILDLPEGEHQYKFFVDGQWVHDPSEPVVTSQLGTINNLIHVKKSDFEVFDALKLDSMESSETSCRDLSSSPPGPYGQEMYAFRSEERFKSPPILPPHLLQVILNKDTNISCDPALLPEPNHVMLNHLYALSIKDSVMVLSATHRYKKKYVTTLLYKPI
T1 sequence (P54619 whole entry partner): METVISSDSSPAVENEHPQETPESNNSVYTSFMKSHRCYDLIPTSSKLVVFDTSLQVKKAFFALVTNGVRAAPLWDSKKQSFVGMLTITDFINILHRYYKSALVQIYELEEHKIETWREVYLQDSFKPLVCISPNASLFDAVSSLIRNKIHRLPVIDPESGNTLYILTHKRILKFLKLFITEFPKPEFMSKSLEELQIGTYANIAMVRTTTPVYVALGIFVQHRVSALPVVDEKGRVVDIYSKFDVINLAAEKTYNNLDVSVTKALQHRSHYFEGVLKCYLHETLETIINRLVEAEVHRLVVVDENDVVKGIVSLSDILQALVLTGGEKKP
Experimental: ATP competition kinase assays were performed by the MRC Protein Phosphorylation and Ubiquitination Unit International Centre for Kinase Profiling (University of Dundee). Inhibition of recombinant human AMPK (α1β2γ1) by 10μM [L2Cu3]^6+ or [L2Zn3]^6+ was evaluated at five different ATP concentrations (0.5, 2, 20, 200 and 500 µM ATP). Substrate competition assays were performed using the ADP-Glo Kinase Assay (Promega) and recombinant human AMPK (α1β2γ1) (Promega) with concentrations of the provided AMPK substrate (SAMStide substrate, Promega) ranging from 1 to 15 mg/ml. Following pre-incubation of substrate with kinase for 5 min 10 µM [L2Cu3]^6+, [L2Zn3]^6+ or solvent control and 50 µM ATP was added to start the kinase reaction. For determination of the effects of AMP on AMPK inhibition by [L2Zn3]^6+, the ADP-Glo Kinase Assay (Promega) was performed in presence of varying of AMP (0, 80, 160 μM).

[2] = target: T2, 140 purified human kinases (Homo sapiens, UniProt Q96L34); test: Kinase inhibition screen, cell-free 33P ATP assay at 10 μM
T2 sequence (Q96L34 1-752): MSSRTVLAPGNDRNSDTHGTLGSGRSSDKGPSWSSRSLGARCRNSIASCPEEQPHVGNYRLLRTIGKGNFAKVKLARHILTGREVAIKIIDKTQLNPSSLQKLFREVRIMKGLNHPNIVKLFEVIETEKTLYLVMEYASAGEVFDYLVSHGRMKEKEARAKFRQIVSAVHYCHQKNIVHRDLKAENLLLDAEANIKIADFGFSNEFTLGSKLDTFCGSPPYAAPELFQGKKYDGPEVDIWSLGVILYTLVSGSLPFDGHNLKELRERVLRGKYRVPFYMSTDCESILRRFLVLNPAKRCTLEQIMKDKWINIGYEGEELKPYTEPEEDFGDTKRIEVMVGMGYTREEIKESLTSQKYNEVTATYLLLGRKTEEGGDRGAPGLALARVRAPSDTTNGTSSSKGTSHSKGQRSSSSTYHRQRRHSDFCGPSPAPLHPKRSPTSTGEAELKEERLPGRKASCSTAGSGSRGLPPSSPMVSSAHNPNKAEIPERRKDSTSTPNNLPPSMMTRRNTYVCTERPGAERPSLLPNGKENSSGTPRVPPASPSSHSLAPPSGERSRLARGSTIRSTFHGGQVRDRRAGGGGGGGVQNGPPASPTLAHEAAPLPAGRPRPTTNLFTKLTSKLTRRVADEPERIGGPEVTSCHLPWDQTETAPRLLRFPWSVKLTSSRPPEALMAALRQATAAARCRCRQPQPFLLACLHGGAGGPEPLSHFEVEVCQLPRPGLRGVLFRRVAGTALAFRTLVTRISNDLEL
Procedure, shortened: (§1)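 Each complex tested in duplicate at 10 μM; cell-free radiometric assay using ^33P ATP on purified enzymes. Hits mapped by HGNC symbol onto the kinome tree.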

[3] = target: T3, 140 purified human kinases (Homo sapiens, UniProt Q14164); test: as above; conditions: IKKe
T3 sequence (Q14164 1-716): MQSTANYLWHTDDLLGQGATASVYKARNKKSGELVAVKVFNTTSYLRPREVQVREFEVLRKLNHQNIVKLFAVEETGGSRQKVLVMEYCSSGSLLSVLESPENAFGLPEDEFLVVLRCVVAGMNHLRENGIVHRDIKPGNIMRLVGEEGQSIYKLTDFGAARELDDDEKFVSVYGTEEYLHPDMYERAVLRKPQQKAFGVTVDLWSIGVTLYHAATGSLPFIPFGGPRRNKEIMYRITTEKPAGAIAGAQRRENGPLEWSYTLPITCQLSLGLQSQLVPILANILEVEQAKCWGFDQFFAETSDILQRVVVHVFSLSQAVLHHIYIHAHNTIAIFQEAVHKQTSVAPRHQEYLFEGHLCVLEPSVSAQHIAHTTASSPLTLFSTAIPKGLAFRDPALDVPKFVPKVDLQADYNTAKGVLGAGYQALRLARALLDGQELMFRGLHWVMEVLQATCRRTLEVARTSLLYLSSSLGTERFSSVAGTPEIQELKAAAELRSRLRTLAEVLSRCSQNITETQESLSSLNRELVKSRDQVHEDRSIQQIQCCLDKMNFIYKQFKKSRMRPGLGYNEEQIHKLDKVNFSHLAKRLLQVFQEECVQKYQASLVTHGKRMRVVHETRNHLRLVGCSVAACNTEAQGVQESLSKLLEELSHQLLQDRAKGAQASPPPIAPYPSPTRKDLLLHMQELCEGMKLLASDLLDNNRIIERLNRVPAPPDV
Procedure, shortened: as §1

[4] = target: 140 purified human kinases (Homo sapiens, UniProt P50750); test: as above
140 purified human kinases (Homo sapiens, UniProt P50750), sequence (P50750 whole entry): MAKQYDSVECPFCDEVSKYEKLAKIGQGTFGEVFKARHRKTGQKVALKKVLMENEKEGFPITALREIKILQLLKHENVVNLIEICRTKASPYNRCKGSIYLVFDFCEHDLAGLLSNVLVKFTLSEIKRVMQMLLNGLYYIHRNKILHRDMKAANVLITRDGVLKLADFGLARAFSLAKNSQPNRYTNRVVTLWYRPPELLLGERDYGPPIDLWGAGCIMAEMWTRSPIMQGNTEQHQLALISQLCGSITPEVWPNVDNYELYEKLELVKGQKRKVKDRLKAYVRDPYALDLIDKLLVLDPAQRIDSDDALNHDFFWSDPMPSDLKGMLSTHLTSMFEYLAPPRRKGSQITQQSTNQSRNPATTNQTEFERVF
Procedure, shortened: as §1

Structure (SMILES) | %AMPK Activity Remaining, Mean ([1]; Substrate 1 mg/ml) [%] | %AMPK Activity Remaining, individual replicates ([1]; Substrate 1 mg/ml) | %AMPK Activity Remaining, Mean ([1]; Substrate 2.5 mg/ml) [%] | %AMPK Activity Remaining, individual replicates ([1]; Substrate 2.5 mg/ml) | %AMPK Activity Remaining, Mean ([1]; Substrate 5 mg/ml) [%] | %AMPK Activity Remaining, individual replicates ([1]; Substrate 5 mg/ml) | %AMPK Activity Remaining, Mean ([1]; Substrate 10 mg/ml) [%] | %AMPK Activity Remaining, individual replicates ([1]; Substrate 10 mg/ml) | %AMPK Activity Remaining, Mean ([1]; Substrate 15 mg/ml) [%] | %AMPK Activity Remaining, individual replicates ([1]; Substrate 15 mg/ml) | % Inhibition, Mean ([2]; MARK4) [%] | mean % activity ([2]; MARK4) [%] | % Inhibition, Mean [3] [%] | mean % activity [3] [%] | % Activation, Mean value ([4]; CDK9-Cyclin T1) [%] | % Inhibition, Mean ([4]; CDK9-Cyclin T1) [%] | mean % activity ([4]; CDK9-Cyclin T1) [%] | further results
[Cu+2].[Cu+2].[Cu+2].c1ccc(-c2csc(NCCN(CCNc3nc(-c4ccccn4)cs3)CCNc3nc(-c4ccccn4)cs3)n2)nc1.c1ccc(-c2csc(NCCN(CCNc3nc(-c4ccccn4)cs3)CCNc3nc(-c4ccccn4)cs3)n2)nc1 [[L2Cu3]6+] | 34.60 | 16.20% and 28.30% and 59.40% | 20.90 | 15.60% and 15.00% and 32.00% | 17.00 | 18.00% and 15.40% and 17.70% | 25.40 | 26.20% and 21.60% and 28.40% | 17.20 | 13.60% and 12.90% and 25.20% | 52 | 48 | 62 | 38 | 18 | -18 | 118 | % Inhibition Run 1 ([2]; MARK4): 52.1%; % Inhibition Run 2 ([2]; MARK4): 52.2%; % activity ([2]; MARK4, Run 1): 47.9%; % activity ([2]; MARK4, Run 2): 47.8%; % Inhibition Run 1 [3]: 69.9%; % Inhibition Run 2 [3]: 53.3%; % activity ([3]; Run 1): 30.1%; % activity ([3]; Run 2): 46.7%; % Inhibition Run 1 ([4]; CDK9-Cyclin T1): -1.8%; % Inhibition Run 2 ([4]; CDK9-Cyclin T1): -34.5%; % activity ([4]; CDK9-Cyclin T1, Run 1): 101.8%; % activity ([4]; CDK9-Cyclin T1, Run 2): 134.5%; % Activity Run 1 ([4]; CDK9-Cyclin T1, 10 µM): 101.80%; % Activity Run 2 ([4]; CDK9-Cyclin T1, 10 µM): 134.50%
CC(=O)[O-].CC(=O)[O-].CC(=O)[O-].CC(=O)[O-].CC(=O)[O-].CC(=O)[O-].[Zn+2].[Zn+2].[Zn+2].c1ccc(-c2csc(NCCN(CCNc3nc(-c4ccccn4)cs3)CCNc3nc(-c4ccccn4)cs3)n2)nc1.c1ccc(-c2csc(NCCN(CCNc3nc(-c4ccccn4)cs3)CCNc3nc(-c4ccccn4)cs3)n2)nc1 [[L2Zn3]6+] | 42.90 | 57.40% and 31.37% and 37.80% and 44.50% | 28.10 | 30.60% and 40.90% and 18.40% and 22.50% | 39.40 | 31.50% (2×) and 56.70% (2×) and 25.70% (2×) and 43.60% (2×) | 43.70 | 40.20% and 42.80% and 35.20% and 56.50% | 35.80 | 33.30% and 26.60% and 47.50% | 39 | 61 | 21 | 79 | 6 | -6 | 106 | % Inhibition, Run 1 / Run 2 ([2]; MARK4): 48% and 31%; % activity ([2]; MARK4, duplicate runs): 52% and 70%; % activity ([3]; duplicate runs): 69% and 89%; % activity ([4]; CDK9-Cyclin T1, duplicate runs): 96% and 117%
